Results reported in patent US20210030726A1 (MOUNT TAM THERAPEUTICS, INC., priority 2018, published 2021).
Where “and” joins values, the source holds several entries; their conditions need not be identical. Equal values may be shown once. Read-outs that look alike come from different tables or passages of the source.

Columns and labels:
Format in all cases: in vivo
[1] = tested on: 6-OHDA injected mice; assay: Anti-TH immunohistochemistry, 6-OHDA-induced striatal denervation; conditions: 10 mg/kg
Protocol: Immunohistochemistry analysis using anti-tyrosine hydroxylase (TH) antibody was performed in mouse midbrain sections to quantify 6-OHDA-induced striatal denervation in mice injected with 6-OHDA and non-injected (control) sides of the brain. […] In contrast, both the 6-OHDA/rapamycin-treated and the 6-OHDA/Formula I-treated sides of the brain show increased staining with the anti-TH antibody, as indicated by the dark shading in those figures. FIG. 3B presents the mean and standard error of the mean (SEM) of the integrated density of anti-TH antibody staining in the striatum, as well as statistical analysis of the results for the groups of mice.

[2] = tested on: 6-OHDA injected mice; assay: TH protein expression in 6-OHDA-treated striatum; conditions: 3 mg/kg, two-day pre-treatment
Protocol: (§1) Immunohistochemistry analysis using anti-tyrosine hydroxylase (TH) antibody was also performed to quantify 6-OHDA-induced neuronal loss in mice injected with 6-OHDA and non-injected (control) sides of the brain. […] FIG. 4B presents the mean and standard error of the mean (SEM) as well as statistical analysis of the results. […] This staining data was confirmed by staining for TH protein expression in the 6-OHDA-treated striatum.

[3] = tested on: 6-OHDA injected mice; assay: Anti-TH immunohistochemistry, 6-OHDA-induced TH+ neuronal loss in SN; conditions: 10 mg/kg
Protocol: as §1

[4] = tested on: 6-OHDA injected mice; assay: 6-OHDA cylinder test (motor performance); conditions: 10 mg/kg, three days pre-treatment before 6-OHDA (80 μg); seven day test
Protocol: The data presented in FIG. 2B as mean and standard error of the mean (SEM), for a seven day test. Statistical analyses as compared to baseline mice were performed using the one-way Anova test (*: p<0.05). […] Data is presented as mean and SEM. Statistical analyses were performed using one-way Anova test (*: p<0.05; ***: p<0.001. n.s.: not significant.)

[5] = Whole blood concentrations after IP administration to mice (LC-MS/MS); conditions: for concentration at 1 h: Day 3, 1.00 hrs; for concentration at 24 h: Day 3, 24.0 hrs
Protocol: These determinations were made using protein precipitation, liquid chromatography (LC), and mass spectrometry (MS/MS). Ten μl aliquots of whole blood and matrix calibration standards were distributed in a 96-well plate; 10 μl aliquots of blank matrix for matrix blanks and control blanks were included as controls. Ten μl of water was added to each sample followed by vortexing. […] This was followed by a five-minute vortex at >3500 rpm. One hundred fifty μl of the resultant supernatant was then transferred to a new 96-well plate and the samples blown to dryness at 35° C. […]

[6] = Brain concentrations after IP administration to mice (LC-MS/MS of brain homogenates); conditions: for Concentration in Mouse Brain, individual animals / concentration at 24 h: Day 3, 24.0 hrs; for Concentration in Mouse Brain, individual animals: Animal ID 1-3; for concentration at 24 h: mouse, brain, ip
Protocol: To carry out these assays using brain homogenates, 20 uL of samples and matrix calibration standards into wells of a 96-well plate, and 10 uL of blank matrix allocated for matrix blanks and control blanks. 160 uL internal standard was then added to all samples except matrix blanks, and 160 uL ACN added to matrix blanks. Samples were then vortexed for 5 minutes and centrifuge for 5 minutes at >3500 rpm. 150 uL of the supernatant was then transferred to a new 96-well plate, and the plates blown down to dryness at 35° C., reconstituted with 90 uL of 70:30 water:acetonitrile (ACN) solution, covered and vortexed prior to analysis. LC and MS conditions were the same as described above for the whole blood analysis.

[7] = 2 mg/kg or 10 mg/kg IP QD for three days
[8] = mouse, whole blood, intraperitoneal, 10 mg/kg, 10 mg/kg IP QD x 3 days, Animal ID 4-6, read-out: Concentration in Mouse Whole Blood, individual animals
[9] = mouse, whole blood, intraperitoneal, 10 mg/kg, 10 mg/kg IP QD x 3 days, read-out: Concentration in Mouse Whole Blood, Mean

- concentration at 1 h [5, 8]: 2890 ng/mL
- concentration at 1 h [5, 9]: 3200 ng/mL
- concentration at 2 h ([5]; mouse, whole blood, intraperitoneal, 10 mg/kg, 10 mg/kg IP QD x 3 days, Day 3, 2.00 hrs): 1900 ng/mL
- concentration at 6 h ([5]; mouse, whole blood, intraperitoneal, 10 mg/kg, 10 mg/kg IP QD x 3 days, Day 3, 6.00 hrs): 1380 ng/mL
- concentration at 24 h [5, 8]: 292 ng/mL
- concentration at 24 h [5, 9]: 372 ng/mL
- Concentration in Mouse Brain, individual animals ([6]; Group 1 (2 mg/kg) IP QD x 3 days, 2 mg/kg): 31.1 ng/g and 39.2 ng/g and 68.1 ng/g
- Concentration in Mouse Brain, individual animals ([6]; Group 2 (10 mg/kg) IP QD x 3 days, 10 mg/kg): 140 ng/g (2×) and 299 ng/g
- concentration at 24 h ([6]; 2 mg/kg, Group 1 (2 mg/kg) IP QD x 3 days): 46.1 ng/g
- concentration at 24 h ([6]; 10 mg/kg, Group 2 (10 mg/kg) IP QD x 3 days): 193 ng/g
Compound: CO[C@H]1C[C@@H]2CC[C@@H](C)[C@@](O)(O2)C(=O)C(=O)N2CCCC[C@H]2C(=O)O[C@H]([C@H](C)C[C@@H]2C[C@@H]3C[C@H]2C[C@H]3O)CC(=O)[C@H](C)/C=C(\C)[C@@H](O)[C@@H](OC)C(=O)[C@H](C)C[C@H](C)/C=C/C=C/C=C/1C [Formula I, 37R-hydroxynorbornylrapamycin]
- 6-OHDA-induced striatal denervation vs rapamycin (FIG. 3A) [1]: also decreased 6-OHDA-induced denervation as compared to rapamycin
- 6-OHDA-induced striatal denervation vs vehicle control (TH integrated density, FIG. 3A) [1]: decreased 6-OHDA-induced denervation as compared to vehicle control
- TH protein expression in 6-OHDA-treated striatum (FIGS. 4C-4F) [2]: non-statistically significant difference
- 6-OHDA-induced neuronal loss vs vehicle control (TH-positive somas in SN, FIG. 4A) [3]: decreased 6-OHDA-induced neuronal loss as compared to vehicle control
- Contralateral touches, percent total touches (FIG. 2B) [4]: outperformed rapamycin and the vehicle control by bringing the number of touches closer to that of baseline mice
- Whole blood exposure (in words) [5, 7]: sufficient concentrations in whole blood over time
- Concentration in Mouse Whole Blood, individual animals ([5]; 10 mg/kg IP QD x 3 days, Day 2, 1.00 hrs, Animal ID 4-6): AQL (Original value above quantitation limit (1000 ng/mL))
- Concentration in Mouse Whole Blood, individual animals ([5]; 10 mg/kg IP QD x 3 days, Day 2, 6.00 hrs, Animal ID 4-6): AQL (Original value above quantitation limit (1000 ng/mL))
- Brain exposure (in words) [6, 7]: sufficient concentrations in brain over time
